Source: patent publication US20160279076A1, “METHODS FOR IMPROVEMENT OF VISUAL FUNCTION AND COMPOSITIONS USED THEREIN” (priority 2015, published 2016)

Tested on: ARPE-19 cells
Test: Gene expression analysis in ARPE-19 cells after lutein pretreatment and UV exposure
Format: cell-based, human
Conditions: for Down-regulated genes expression / Up-regulated genes expression: 10 μM lutein 24 hour pretreatment
Description: Retinal pigment epithelial (RPE) cells play a key protective role by shielding retina from damaging UV rays and are used as a model to study the effect of macular carotenoids. In this study, a human RPE cell line (ARPE-19 cells were acquired from American Type Culture Collection (ATCC)) was either treated with placebo or treated with macular carotenoids alone or in combination for 24 hours prior to UV exposure. Cells were maintained for another 18 hours, then harvested for gene expressions. In another study, acetylcholinesterase and catalase activities in the presence of macular carotenoids were tested.
According to Study 1, Cell line ARPE-19 was subjected to 24 hour pretreatment with 10 μM lutein, followed by exposure to UV radiation of 1 J/m^2 for 7 seconds.
According to Study 2, Cell line ARPE-19 was subjected to 24 hour pretreatment with 10 μM lutein, followed by exposure to UV radiation of 300 J/m^2 for 10 minutes.
Gene expression analysis was carried out in response to UV exposure and macular carotenoid administration.

SMILES: CC1=C[C@H](O)CC(C)(C)[C@H]1/C=C/C(C)=C/C=C/C(C)=C/C=C/C=C(C)/C=C/C=C(C)/C=C/C1=C(C)C[C@@H](O)CC1(C)C [Lutein, lutein]
- Down-regulated genes expression (with UV exposure): inhibits inflammation
- Up-regulated genes expression (with UV exposure): inhibits oncogenesis and growth factor tumor suppressors
- Down-regulated genes expression (without UV exposure): inhibits DNA damage and inflammation
- Up-regulated genes expression (without UV exposure): inhibits oncogenesis and inflammation
- Gene expression analysis, overall role for vision health (ARPE-19 cells, UV irradiation): plays a protective role for vision health
